Measurements from patent publication EP0620225B1, “Cephalosporin derivatives” (Basilea Pharmaceutica AG, priority 1993, dated 1994).
Values after ≈ are worked out from the molar mass of the structure shown. Values belong to the compound of their own block, whether it stands above or below them.

Experiments:
S.viridans group = assay: In vitro activity against selected species (MIC50, MIC90, range); assay type: cell-based
S.aureus MSSA = assay: as above; assay type: cell-based; conditions: Staphylococcus aureus, medium MHB (Mueller Hinton Broth); for MIC: MIC range
E.faecium = assay: In vitro activity against selected species (MIC50, range); assay type: cell-based; conditions: Enterococcus faecium, medium MHA
Experimental: (§1) In vitro activity was determined by minimum inhibitory concentration in a microorganism spectum by the agar dilution method in Mueller Hinton agar.

E.faecalis [1] = assay: In vitro activity against selected species (MIC50, MIC90, range); assay type: cell-based; conditions: Enterococcus faecalis, medium IsoB
Escherichia coli 25922 = assay: Efficacy against systemic infections (septicemia) in mice; assay type: in vivo; conditions: 96 h, survival day 4
Experimental: (§2) Septicemia was induced in outbred Swiss albino mice (Jbm MoRo [specific pathogen free]; weight 16 to 20 g, Biomedical Research Laboratories, Füllinsdorf, Switzerland). Mice were infected by intraperitoneal injection of diluted overnight cultures of the test organisms. Bacterial challenge doses were 4-10 times the number of organisms required to kill 50% of untreated animals within 48 h. The test compounds were administered p.o. or s.c. 1 and 3 h after the bacterial challenge. To treat the infection with Pseudomonas aeruginosa BA an additional dose was given 5 h after challenge. Control and treatment groups at each dose were composed of five mice each. The 50% effective dose (ED50, in milligrams per kilogram) was calculated by probit analysis as described by Finney (Finney, D.J. 1978, Statistical method in biological assay, 3rd ed. Charles Griffin & Co., Ltd., London), from the survival rates on day 4 after infection.

S.aureus Smith = assay: as above; assay type: in vivo; conditions: Staphylococcus aureus, 96 h, sc 1 and 3 h after challenge, survival day 4
Experimental: as §2

S.pneumoniae PEN-R = assay: In vitro activity against selected species (MIC50, MIC90, range); assay type: cell-based; conditions: Streptococcus pneumoniae; for MIC: MIC range
M.catarrhalis = assay: as above; assay type: cell-based; conditions: Moraxella catarrhalis, medium IsoB
S.aureus MRSA = assay: as above; assay type: cell-based; conditions: Staphylococcus aureus, medium MHA (Mueller Hinton Agar) +NaCl
Experimental: as §1

E.faecalis [2] = assay: as above; assay type: cell-based; conditions: Enterococcus faecalis, medium MHA
Experimental: as §1

E.coli 25922 = assay: Antibacterial spectrum (MIC), agar dilution; assay type: cell-based; conditions: Escherichia coli, read-out: MIC
Experimental: as §1

P.aeruginosa 27853 = assay: Antibacterial spectrum (MIC), agar dilution; assay type: cell-based; conditions: Pseudomonas aeruginosa, read-out: MIC
Experimental: as §1

X.maltophilia 1AC739 = assay: Antibacterial spectrum (MIC), agar dilution; assay type: cell-based; conditions: Stenotrophomonas maltophilia, read-out: MIC
Experimental: as §1

C.difficile ZH1 = assay: Antibacterial spectrum (MIC), agar dilution; assay type: cell-based; conditions: Clostridioides difficile, read-out: MIC
Experimental: as §1

S.viridans group 016 = assay: Antibacterial spectrum (MIC), agar dilution; assay type: cell-based; conditions: Streptococcus viridans, read-out: MIC
Experimental: as §1

C.freundii 902 = assay: Antibacterial spectrum (MIC), agar dilution; assay type: cell-based; conditions: Citrobacter freundii, read-out: MIC
Experimental: as §1

P.vulgaris 1028 = assay: Antibacterial spectrum (MIC), agar dilution; assay type: cell-based; conditions: Proteus vulgaris, read-out: MIC
Experimental: as §1

S.agalactiae QK44 = assay: Antibacterial spectrum (MIC), agar dilution; assay type: cell-based; conditions: Streptococcus agalactiae, read-out: MIC
Experimental: as §1

S.marcescens 69438 = assay: Antibacterial spectrum (MIC), agar dilution; assay type: cell-based; conditions: Serratia marcescens, read-out: MIC
Experimental: as §1

E.cloacae 908R = assay: Antibacterial spectrum (MIC), agar dilution; assay type: cell-based; conditions: Enterobacter cloacae, read-out: MIC
Experimental: as §1

S.pneumoniae Q19 = assay: Antibacterial spectrum (MIC), agar dilution; assay type: cell-based; conditions: Streptococcus pneumoniae, read-out: MIC
Experimental: as §1

S.aureus 734 MRSA = assay: Antibacterial spectrum (MIC), agar dilution; assay type: cell-based; conditions: Staphylococcus aureus, read-out: MIC
Experimental: as §1

P.mirabilis 2117 = assay: Antibacterial spectrum (MIC), agar dilution; assay type: cell-based; conditions: Proteus mirabilis, read-out: MIC
Experimental: as §1

E.cloacae 908SSi = assay: Antibacterial spectrum (MIC), agar dilution; assay type: cell-based; conditions: Enterobacter cloacae, read-out: MIC
Experimental: as §1

E.faecalis 6 = assay: Antibacterial spectrum (MIC), agar dilution; assay type: cell-based; conditions: Enterococcus faecalis, read-out: MIC
Experimental: as §1

Acinetobacter sp.51-156 = assay: Antibacterial spectrum (MIC), agar dilution; assay type: cell-based; conditions: SP.51156, read-out: MIC
Experimental: as §1

C.freundii 43 = assay: Antibacterial spectrum (MIC), agar dilution; assay type: cell-based; conditions: Citrobacter freundii, read-out: MIC
Experimental: as §1

M.morganii 6H-137 = assay: Antibacterial spectrum (MIC), agar dilution; assay type: cell-based; conditions: Morganella morganii, 6H137, read-out: MIC
Experimental: as §1

B.fragilis ATCC25285 = assay: Antibacterial spectrum (MIC), agar dilution; assay type: cell-based; conditions: Bacteroides fragilis, read-out: MIC
Experimental: as §1

N.meningitidis 69480 = assay: Antibacterial spectrum (MIC), agar dilution; assay type: cell-based; conditions: Neisseria meningitidis, read-out: MIC
Experimental: as §1

K.pneumoniae 418 = assay: Antibacterial spectrum (MIC), agar dilution; assay type: cell-based; conditions: Klebsiella pneumoniae, read-out: MIC
Experimental: as §1

S.pyogenes B15 = assay: Antibacterial spectrum (MIC), agar dilution; assay type: cell-based; conditions: Streptococcus pyogenes, read-out: MIC
Experimental: as §1

L.monocytogenes BK23 = assay: Antibacterial spectrum (MIC), agar dilution; assay type: cell-based; conditions: Listeria monocytogenes, read-out: MIC
Experimental: as §1

P.asaccharolyticus 29743 = assay: Antibacterial spectrum (MIC), agar dilution; assay type: cell-based; conditions: Peptoniphilus asaccharolyticus, read-out: MIC
Experimental: as §1

S.aureus 6538 = assay: Antibacterial spectrum (MIC), agar dilution; assay type: cell-based; conditions: Staphylococcus aureus, read-out: MIC
Experimental: as §1

H.influenzae 1 = assay: Antibacterial spectrum (MIC), agar dilution; assay type: cell-based; conditions: Haemophilus influenzae, read-out: MIC
Experimental: as §1

M.catarrhalis RA21 = assay: Antibacterial spectrum (MIC), agar dilution; assay type: cell-based; conditions: Moraxella catarrhalis, read-out: MIC
Experimental: as §1

[3] = Escherichia coli 25922, po (orally) 1 and 3 h after challenge
[4] = Escherichia coli, E.coli 25922, sc 1 and 3 h after challenge
[5] = medium IsoB (Isosensitest Broth)

MIC50 (S.viridans group; Streptococcus viridans): 8 mg/L (≈ 20.2 µM)
MIC90 (S.viridans group; Streptococcus viridans): 16 mg/L (≈ 40.5 µM)
MIC (S.aureus MSSA): 0.5 to 4 mg/L (≈ 1.26 to 10.1 µM)
MIC50 (S.aureus MSSA): 1 mg/L (≈ 2.53 µM)
MIC90 (S.aureus MSSA): 2 mg/L (≈ 5.06 µM)
MIC50 (E.faecium): 16 mg/L (≈ 40.5 µM)
MIC (E.faecalis [1]; MIC range): 1 to 64 mg/L (≈ 2.53 to 162 µM)
MIC50 (E.faecalis [1]): 8 mg/L (≈ 20.2 µM)
MIC90 (E.faecalis [1]): 32 mg/L (≈ 80.9 µM)
MIC (S.pneumoniae PEN-R; [5]): 0.1 to 8 mg/L (≈ 0.253 to 20.2 µM)
MIC (S.pneumoniae PEN-R; medium IsoB + 20% serum): 0.1 to 8 mg/L
MIC50 (S.pneumoniae PEN-R; [5]): 2 mg/L (≈ 5.06 µM)
MIC90 (S.pneumoniae PEN-R; [5]): 4 mg/L (≈ 10.1 µM)
MIC50 (S.pneumoniae PEN-R; medium IsoB + 20% serum): 4 mg/L
MIC (M.catarrhalis; MIC range): 0.25 to 0.5 mg/L (≈ 0.632 to 1.26 µM)
MIC50 (M.catarrhalis): 0.25 mg/L (≈ 0.632 µM)
MIC90 (M.catarrhalis): 0.5 mg/L (≈ 1.26 µM)
MIC50 (S.aureus MRSA): > 32 mg/L
MIC90 (S.aureus MRSA): > 32 mg/L
MIC (E.faecalis [2]; MIC range): 4 to 32 mg/L (≈ 10.1 to 80.9 µM)
MIC50 (E.faecalis [2]): 8 mg/L (≈ 20.2 µM)
MIC90 (E.faecalis [2]): 16 mg/L (≈ 40.5 µM)
MIC (E.coli 25922): 0.25 mg/L (≈ 0.632 µM)
MIC (P.aeruginosa 27853): > 32 mg/L
MIC (X.maltophilia 1AC739): > 32 mg/L
MIC (C.difficile ZH1): 32 mg/L (≈ 80.9 µM)
MIC (S.viridans group 016): 2 mg/L (≈ 5.06 µM)
MIC (C.freundii 902): 16 mg/L (≈ 40.5 µM)
MIC (P.vulgaris 1028): 1 mg/L (≈ 2.53 µM)
MIC (S.agalactiae QK44): 0.25 mg/L (≈ 0.632 µM)
MIC (S.marcescens 69438): 16 mg/L (≈ 40.5 µM)
MIC (E.cloacae 908R): > 32 mg/L
MIC (S.pneumoniae Q19): 0.25 mg/L (≈ 0.632 µM)
MIC (S.aureus 734 MRSA): > 32 mg/L
MIC (P.mirabilis 2117): 0.12 mg/L (≈ 0.303 µM)
MIC (E.cloacae 908SSi): 32 mg/L (≈ 80.9 µM)
MIC (E.faecalis 6): 8 mg/L (≈ 20.2 µM)
MIC (Acinetobacter sp.51-156): > 32 mg/L
MIC (C.freundii 43): > 32 mg/L
MIC (M.morganii 6H-137): 8 mg/L (≈ 20.2 µM)
MIC (B.fragilis ATCC25285): 32 mg/L (≈ 80.9 µM)
MIC (N.meningitidis 69480): ≤ 0.06 mg/L
MIC (K.pneumoniae 418): 0.12 mg/L (≈ 0.303 µM)
MIC (S.pyogenes B15): ≤ 0.06 mg/L
MIC (L.monocytogenes BK23): 16 mg/L (≈ 40.5 µM)
MIC (P.asaccharolyticus 29743): ≤ 0.12 mg/L
MIC (S.aureus 6538): 0.5 mg/L (≈ 1.26 µM)
MIC (H.influenzae 1): 0.5 mg/L (≈ 1.26 µM)
MIC (M.catarrhalis RA21): 1 mg/L (≈ 2.53 µM)
SMILES: C=CC1=C(C(=O)O)N2C(=O)[C@@H](NC(=O)/C(=N\O)c3csc(N)n3)[C@H]2SC1 [Cefdinir, reference compound]
Range (S.viridans group; MIC range, medium IsoB): <0.12 to 128 µg/mL
ED50 (Escherichia coli 25922; [3]): 1.8 mg/kg
ED50 (Escherichia coli 25922; [4]): < 1 mg/kg
ED50 (S.aureus Smith): < 1 mg/kg

MIC (S.aureus MSSA): 2 to 16 mg/L (≈ 3.61 to 28.9 µM)
MIC50 (S.aureus MSSA): 4 mg/L (≈ 7.21 µM)
MIC90 (S.aureus MSSA): 16 mg/L (≈ 28.9 µM)
MIC (E.faecium; MIC range): > 32 mg/L
MIC50 (E.faecium): > 32 mg/L
MIC (S.pneumoniae PEN-R; [5]): 0.1 to 2 mg/L (≈ 0.18 to 3.61 µM)
MIC (S.pneumoniae PEN-R; medium IsoB + 20% serum): 1 to 8 mg/L
MIC50 (S.pneumoniae PEN-R; [5]): 0.5 mg/L (≈ 0.902 µM)
MIC90 (S.pneumoniae PEN-R; [5]): 1 mg/L (≈ 1.8 µM)
MIC50 (S.pneumoniae PEN-R; medium IsoB + 20% serum): 4 mg/L
MIC (S.aureus MRSA; MIC range): > 32 mg/L
MIC50 (S.aureus MRSA): > 32 mg/L
MIC90 (S.aureus MRSA): > 32 mg/L
MIC50 (E.faecalis [2]): > 32 mg/L
MIC90 (E.faecalis [2]): > 32 mg/L
MIC (E.coli 25922): ≤ 0.06 mg/L
MIC (P.aeruginosa 27853): 16 mg/L (≈ 28.9 µM)
MIC (X.maltophilia 1AC739): > 32 mg/L
MIC (C.difficile ZH1): > 32 mg/L
MIC (S.viridans group 016): 0.25 mg/L (≈ 0.451 µM)
MIC (C.freundii 902): 0.25 mg/L (≈ 0.451 µM)
MIC (P.vulgaris 1028): 0.12 mg/L (≈ 0.216 µM)
MIC (S.agalactiae QK44): ≤ 0.06 mg/L
MIC (S.marcescens 69438): 0.25 mg/L (≈ 0.451 µM)
MIC (E.cloacae 908R): > 32 mg/L
MIC (S.pneumoniae Q19): ≤ 0.06 mg/L
MIC (S.aureus 734 MRSA): > 32 mg/L
MIC (P.mirabilis 2117): ≤ 0.06 mg/L
MIC (E.cloacae 908SSi): 0.25 mg/L (≈ 0.451 µM)
MIC (E.faecalis 6): > 32 mg/L
MIC (Acinetobacter sp.51-156): 32 mg/L (≈ 57.7 µM)
MIC (C.freundii 43): 32 mg/L (≈ 57.7 µM)
MIC (M.morganii 6H-137): ≤ 0.06 mg/L
MIC (B.fragilis ATCC25285): 16 mg/L (≈ 28.9 µM)
MIC (N.meningitidis 69480): < 0.01 mg/L
MIC (K.pneumoniae 418): ≤ 0.06 mg/L
MIC (S.pyogenes B15): ≤ 0.06 mg/L
MIC (L.monocytogenes BK23): > 16 mg/L
MIC (P.asaccharolyticus 29743): 0.25 mg/L (≈ 0.451 µM)
MIC (S.aureus 6538): 4 mg/L (≈ 7.21 µM)
MIC (H.influenzae 1): < 0.06 mg/L
MIC (M.catarrhalis RA21): 1 mg/L (≈ 1.8 µM)
SMILES: CO/N=C(\C(=O)N[C@@H]1C(=O)N2C(C(=O)O)=C(CSc3nc(=O)c(=O)[nH]n3C)CS[C@H]12)c1csc(N)n1 [Ceftriaxone, [6R-[6 α,7 β(Z)]]-7-[[(2-Amino-4-thiazolyl)(methoxyimino)acetyl]amino]-8-oxo-3-[[(1,2,5,6-tetrahydro-2-methyl-5,6-dioxo-1,2,4-triazin-3-yl)thio]methyl]-5-thia-1-azabicyclo[4.2.0]oct-2-ene-2-carboxylic acid, reference compound]
ED50 (Escherichia coli 25922; [3]): 0.9 mg/kg
ED50 (Escherichia coli 25922; [4]): ≤ 0.01 mg/kg
ED50 (S.aureus Smith): < 2 mg/kg
